# Results reported in US4503044A, “Antibiotic LL-D05139 β” (American Cyanamid Company, priority 1983, dated 1985).
# Where two headings read alike, the source gives them in different places.
# Assays:
# [1] = system: Acinetobacter calcoaceticus; experiment: In vitro antibacterial activity, agar dilution; format: cell-based; settings: 18 h, 35° C., read-out: Minimal Inhibitory Concentration
# Method: (§1) This antibacterial agent is active in vitro against gram-positive and gram-negative bacteria when tested by the standard agar dilution procedure with Mueller-Hinton agar, and an inoculum of each test organism of approximately 10^4 colony-forming units delivered by a Steers replicating device. The minimal inhibitory concentration (mcg/ml) was defined as the lowest concentration of antibiotic LL-D05139β that inhibited visible growth after 18 hours incubation at 35° C.
# Bacillus subtilis = experiment: In vitro antibacterial activity, agar dilution; format: cell-based; settings: ATCC6633; Bacillus subtilis ATCC 6633; Mueller-Hinton agar, 18 hours, 35° C.; read-out: Minimal Inhibitory Concentration
# Method: as §1
# Candida albicans = experiment: In vitro antibacterial activity, agar dilution; format: cell-based; settings: 18 h, 35° C., read-out: Minimal Inhibitory Concentration
# Method: as §1
# Enterobacter aerogenes = experiment: In vitro antibacterial activity, agar dilution; format: cell-based; settings: Klebsiella aerogenes; Enterobacter aerogenes Stfd-79-14; Mueller-Hinton agar, 18 hours, 35° C.; read-out: Minimal Inhibitory Concentration
# Method: as §1
# Enterobacter cloacae = experiment: In vitro antibacterial activity, agar dilution; format: cell-based; settings: Enterobacter cloacae K-79-16; Mueller-Hinton agar, 18 hours, 35° C.; read-out: Minimal Inhibitory Concentration
# Method: as §1
# Enterococcus sp. = experiment: In vitro antibacterial activity, agar dilution; format: cell-based; settings: Mueller-Hinton agar, 18 hours, 35° C.
# Method: as §1
# Escherichia coli = experiment: In vitro antibacterial activity, agar dilution; format: cell-based; settings: 35° C., read-out: Minimal Inhibitory Concentration
# Method: as §1
# Klebsiella pneumoniae = experiment: In vitro antibacterial activity, agar dilution; format: cell-based; settings: 18 h, 35° C., read-out: Minimal Inhibitory Concentration
# Method: as §1
# Micrococcus luteus = experiment: In vitro antibacterial activity, agar dilution; format: cell-based; settings: Micrococcus luteus PCI-1001; Mueller-Hinton agar, 18 hours, 35° C.; read-out: Minimal Inhibitory Concentration
# Method: as §1
# Pasteurella multocida = experiment: In vitro antibacterial activity, agar dilution; format: cell-based; settings: Pasteurella multocida LL #117; Mueller-Hinton agar, 18 hours, 35° C.; read-out: Minimal Inhibitory Concentration
# Method: as §1
# Proteus morganii = experiment: In vitro antibacterial activity, agar dilution; format: cell-based; settings: Morganella morganii; Proteus morganii K-79-25; Mueller-Hinton agar, 18 hours, 35° C.; read-out: Minimal Inhibitory Concentration
# Method: as §1
# Proteus rettgeri = experiment: In vitro antibacterial activity, agar dilution; format: cell-based; settings: Providencia rettgeri; Proteus rettgeri N-76-1; Mueller-Hinton agar, 18 hours, 35° C.; read-out: Minimal Inhibitory Concentration
# Method: as §1
# Providencia stuarti = experiment: In vitro antibacterial activity, agar dilution; format: cell-based; settings: Mueller-Hinton agar, 18 hours, 35° C.
# Method: as §1
# Pseudomonas aeruginosa = experiment: In vitro antibacterial activity, agar dilution; format: cell-based; settings: 35° C., read-out: Minimal Inhibitory Concentration
# Method: as §1
# Salmonella sp. = experiment: In vitro antibacterial activity, agar dilution; format: cell-based; settings: Salmonella sp. QHC-77-3; Mueller-Hinton agar, 18 hours, 35° C.; read-out: Minimal Inhibitory Concentration
# Method: as §1
# Serratia marcescens = experiment: In vitro antibacterial activity, agar dilution; format: cell-based; settings: Serratia marcescens QHC-77-2; Mueller-Hinton agar, 18 hours, 35° C.; read-out: Minimal Inhibitory Concentration
# Method: as §1
# Serratia sp. = experiment: In vitro antibacterial activity, agar dilution; format: cell-based; settings: Serratia sp. TU1-78-15; Mueller-Hinton agar, 18 hours, 35° C.; read-out: Minimal Inhibitory Concentration
# Method: as §1
# Staphylococcus aureus = experiment: In vitro antibacterial activity, agar dilution; format: cell-based; settings: Mueller-Hinton agar, 18 hours, 35° C.; for MIC: read-out: Minimal Inhibitory Concentration
# Method: as §1
# [2] = system: lymphocytic leukemia P388; experiment: Lymphocytic Leukemia P388 Test; format: in vivo; settings: DBA/2 mice, efficacy criterion ≥125%
# Method: The animals used were DBA/2 mice, all of one sex, weighing a minimum of 17 g and all within a 3 g weight range. There were three animals per test group. The tumor transplant was by intraperitoneal injection of 0.1 ml of dilute ascitic fluid containing 10^6 cells of lymphocytic leukemia P388. LL-D05139β was administered intraperitoneally on days 1, 5 and 9 (relative to tumor inoculation) at various doses. The animals were weighed and survivors recorded on a regular basis for 30 days. The ratio of survival time for treated (T)/control (C) animals was calculated. The positive control compound was 5-fluorouracil, given as a 60 mg/kg injection. The criterion for efficacy is T/C×100≥125%.
# [3] = system: human lung carcinoma (LX-1); experiment: Human tumor clonogenic assay, lung carcinoma; format: cell-based; settings: for T/C / Av. No. of Colonies/Culture: Lung Carcinoma; for T/C: active if T/C ≤30%; for Av. No. of Colonies/Culture: colonies counted after 10-11 days, control 590
# Method: (§2) This test was performed essentially by the method of A. Hamburger and S. Salmon, Primary bioassay of humor tumor stem cells., Science, 197: 461-463 (1977). Human colon carcinoma (CX-1) and human lung carcinoma (LX-1) tumors were obtained from the National Cancer Institute and propagated in athymic Balb/c mice. Freshly removed tumors were dispersed with trypsin 0.25% and 5×10^4 lung carcinoma cells or 1×10^5 colon carcinoma cells in soft (0.3%) agarose medium containing 0.1 ml of test drug were plated onto a solidified (0.5%) agarose base medium in 35 mm grided dishes. Cultures were incubated at 37° C. in a humidified 5% carbon dioxide in air atmosphere. Colonies were counted after 10-11 days. A compound is considered active if the treated/control (T/C) value is ≤30%, representing a 70% cell kill.
# [4] = system: human colon carcinoma (CX-1); experiment: Human tumor clonogenic assay, colon carcinoma; format: cell-based
# Method: as §2
# [5] = Stability in solution as a function of pH; format: physicochemical
smiles,measurement,setting,value
"C[C@H](N)C(=O)N[C@@H](COC(=O)C=[N+]=[N-])C(=O)O [LL-D05139β, N-L-alanyl-L-serine diazoacetate]",MIC,"[1]; Acinetobacter calcoaceticus K-77-1, Mueller-Hinton agar",128 µg/mL
same,MIC,"[1]; Acinetobacter calcoaceticus Stfd-79-17, Mueller-Hinton agar",512 µg/mL
same,MIC,Bacillus subtilis,16 µg/mL
same,MIC,"Candida albicans; Candida albicans LL #32, Mueller-Hinton agar",64 µg/mL
same,MIC,"Candida albicans; Candida albicans LL #54, Mueller-Hinton agar",128 µg/mL
same,MIC,Enterobacter aerogenes,128 µg/mL
same,MIC,Enterobacter cloacae,128 µg/mL
same,MIC,"Enterococcus sp.; Enterococcus sp. OSU-75-1, read-out: Minimal Inhibitory Concentration",64 µg/mL
same,Minimal Inhibitory Concentration,Enterococcus sp.; Enterococcus sp. SM-77-15,64 µg/mL
same,MIC,"Escherichia coli; 18 h, Escherichia coli #31, Mueller-Hinton agar",4 µg/mL
same,MIC,"Escherichia coli; 18 h, Escherichia coli Stfd-79-20, Mueller-Hinton agar",8 µg/mL
same,MIC,"Escherichia coli; ATCC25922, 18 h, Escherichia coli ATCC 25922, Mueller-Hinton agar",8 µg/mL
same,MIC,"Klebsiella pneumoniae; Klebsiella pneumoniae AD, Mueller-Hinton agar",4 µg/mL
same,MIC,"Klebsiella pneumoniae; Klebsiella pneumoniae SSC-78-1, Mueller-Hinton agar",128 µg/mL
same,MIC,"Klebsiella pneumoniae; Klebsiella pneumoniae Stfd-79-6, Mueller-Hinton agar",128 µg/mL
same,MIC,Micrococcus luteus,4 µg/mL
same,MIC,Pasteurella multocida,64 µg/mL
same,MIC,Proteus morganii,64 µg/mL
same,MIC,Proteus rettgeri,16 µg/mL
same,Minimal Inhibitory Concentration,Providencia stuarti; Providencia stuarti K-81-29,64 µg/mL
same,MIC,"Providencia stuarti; Providencia stuarti SSC-80-78, read-out: Minimal Inhibitory Concentration",64 µg/mL
same,MIC,"Pseudomonas aeruginosa; 18 h, Pseudomonas aeruginosa 12-4-4, Mueller-Hinton agar",128 µg/mL
same,MIC,"Pseudomonas aeruginosa; 18 h, Pseudomonas aeruginosa SSC-78-13, Mueller-Hinton agar",512 µg/mL
same,MIC,"Pseudomonas aeruginosa; ATCC27853, 18 h, Pseudomonas aeruginosa ATCC 27853, Mueller-Hinton agar",128 µg/mL
same,MIC,Salmonella sp.,4 µg/mL
same,MIC,Serratia marcescens,32 µg/mL
same,MIC,Serratia sp.,64 µg/mL
same,MIC,"Staphylococcus aureus; ATCC25923, Staphylococcus aureus ATCC 25923",16 µg/mL
same,Minimal Inhibitory Concentration,Staphylococcus aureus; Staphylococcus aureus FU-79-2,16 µg/mL
same,MIC,Staphylococcus aureus; Staphylococcus aureus SSC-79-18,16 µg/mL
same,T/C × 100 (survival time treated/control),"[2]; 25 mg/kg intraperitoneally on days 1, 5 and 9",140%
same,T/C × 100 (survival time treated/control),"[2]; 50 mg/kg intraperitoneally on days 1, 5 and 9",150%
same,T/C × 100 (survival time treated/control),"[2]; 200 mg/kg intraperitoneally on days 1, 5 and 9",140%
same,T/C,[3]; concentration 2 mgc/ml,23.2%
same,Av. No. of Colonies/Culture,[3]; concentration 2 mgc/ml,137
same,T/C,[3]; concentration 20 mgc/ml,17.8%
same,Av. No. of Colonies/Culture,[3]; concentration 20 mgc/ml,105
same,T/C,[3]; concentration 200 mgc/ml,13.0%
same,Av. No. of Colonies/Culture,[3]; concentration 200 mgc/ml,78
same,activity in human tumor clonogenic (stem cell) assay,"[3]; human lung (LX-1) carcinoma, at 2.0 mcg/ml and higher doses",active
same,T/C,"[4]; Colon Carcinoma, concentration 2 mgc/ml, active if T/C ≤30%",16.0%
same,Av. No. of Colonies/Culture,"[4]; Colon Carcinoma, concentration 2 mgc/ml, colonies counted after 10-11 days, control 420",67
same,activity in human tumor clonogenic (stem cell) assay,"[4]; colon (CX-1) carcinoma, at 2.0 mcg/ml and higher doses",active
same,stability in acid,"[5]; acid, solutions kept between pH 7 and pH 9.5 during isolation",poor stability
same,stability,[5]; below pH 5.0,Decomposes rapidly
same,stability,[5]; weakly basic solutions,stable
